What was measured:
LNCaP cells [1] = test: MTT cell growth assay; format: cell-based, human; conditions: three days; for cell growth (MTT): increasing doses in full culture medium, dose-responsive; for cell growth inhibition (MTT): equimolecular concentrations of LiCl, NaCl, KCl
Experimental: (§1) For MTT-based cell growth assays, cells seeded in 96-well plates were serum-starved for 48 hours, and were then treated with vehicle or different reagents for different time periods as indicated in the figures. MTT assay were carried out using a pre-assembled kit (Sigma) according to the manufacturer's manual.
(§2) To rule out the eventual intervention of the chloride anion and the osmotic disturbance, the effect of LiCl was compared with sodium chloride (“NaCl”) and potassium chloride (“KCl”) at equimolecular concentrations in both LNCaP and PC-3 cell lines. In addition, the androgen-insensitive C4-2 cell line was included. To easily handle the experiments while multiple comparisons were taken in place, a MTT assay was used to assess cell growth.
Lastly, two GSK-3β-specific small chemical inhibitors, SB216763 and BIO, were used to verify that LiCl-induced suppression of cell growth is due to GSK-3β inhibition. LNCaP cells were seeded as above and then treated with increasing doses of the inhibitors in a full culture medium. Cell growth was assessed three days later by MTT assay.

LNCaP cells [2] = test: Western blot of cell cycle-related proteins; format: cell-based, human; conditions: BIO at different doses for 24 hours
Experimental: Western blot was carried out as described previously (Liao 2004, Liao 2003, and Liao 2005). Briefly, cells were pellets and lysed in radio-immunoprecipitation assay (“RIPA”) buffer containing protease inhibitors (Half™ Protease Inhibitor Cocktail Kit, PIERCE, Rockford, Ill.). Proteins were separated on SDS-PAGE gels and transferred to Immuno-Blot™ PVDF membrane (BIO-RAD, Hercules, Calif.). Membranes were blocked in a tris-buffered solution plus Tween 20 (“TBST”) solution with 5% nonfat dry milk and incubated with primary antibodies overnight at 4° C. Immunoreactive signals were detected by horseradish peroxidase-conjugated secondary antibodies (Santa Cruz Biotech., Santa Cruz, Calif.) followed by SuperSingnal® WestFeml® Maximum Sensitivity Substrate (PIERCE).
To verify those alterations at a protein level, two series experiments were conducted using Western blot technique. The first involved a time-course experiment. After serum starvation, LNCaP cells were left untreated or treated as before with LiCl for up to 24 hours. Cells were harvested at 18-24 hours.
Next, a dose-response experiment was performed. Following serum starvation for 24 hours, LNCaP cells were treated with BIO at different doses for another 24 hours. Control cells received the vehicle as treatment.

C4-2 cells [3] = test: MTT cell growth assay; format: cell-based, human; conditions: equimolecular concentrations of LiCl, NaCl, KCl, three days
Experimental: as §1, §2

PC-3 cells [4] = test: MTT cell growth assay; format: cell-based, human; conditions: equimolecular concentrations of LiCl, NaCl, KCl, three days
Experimental: as §1, §2

C4-2 cells [5] = test: cell cycle analysis by flow cytometry (PI); format: cell-based, human; conditions: 12 hours treatment
Experimental: (§3) For cell cycle analysis, serum-starved cells were left untreated or treated with different inhibitors for various time periods as indicated in the figures. After trypsinization, the cells were fixed and stained with propidium iodide (“PI”). Cell cycle distribution of PI-labeled cells was analyzed on a fluorescence activated cell sorter (Model EPICS XL-MCL, Beckman-Coulter Co., Fullerton, Calif.) as described previously (Miyake 2001).
(§4) The effect of GSK-3β SB216763 on cell cycle distribution in AR-null PC-3 and androgen-insensitive C4-2 cell lines were also examined.

PC-3 cells [6] = test: cell cycle analysis by flow cytometry (PI); format: cell-based, human; conditions: 12 hours treatment
Experimental: as §3, §4

LNCaP-BclxL xenografts = test: LNCaP-BclxL xenograft model; format: in vivo, castrated nude mice
Experimental: All animal studies were conducted under an approved Institutional Animal Care and Use Committee protocol. Single cell suspensions (2×10^6 cells in 0.1 ml of RPMI1640 medium plus 10% FBS) were inoculated subcutaneously (s.c.) into the rear flanks (two sites/mouse) of 6 to 7 weeks old male nude mice (Charles River, Wilmington, Mass.). For protocol A, mice were randomly divided into two groups (5 animals each). On next day after inoculation, one group of animals received i.p. injection of LiCl at a daily dose of 2 mg/kg body weight. LiCl was dissolved in PBS. The control groups of animals received PBS alone in the same volume. Xenograft development and growth were monitored for 8 weeks. The tumor dimensions were measured twice a week. The tumor volume was calculated by the formula of L×W×H×0.5236 (Miyake 2001). At the end of treatment, xenograft tumors were extirpated, and the final tumor size and weight, as well as animal weight were measured. For protocol B, treatment began until tumor became palpable or 50 mm^3 in size, and LiCl or PBS was injected (5 animals each group) as above for a two-week course. Tumor size and weight were measured at the end of treatment. For BrdU in vivo labeling, the animals were injected i.p. with 0.5 ml of a 10-mM BrdU solution (Invitrogen) 2 hours before sacrifice. For experiments involving LNCaP-BclxL SB216763 subline cells (Liao 2005) were inoculated as above, and SB216763 treatment was started two weeks later when palpable xenografts were established. The SB216763 for animal use was purchased from Biomol (Plymouth Meeting, Pa.) and dissolved in a formula containing 50% N,N-dimethylacetamide (“DMA”), 45% polyethylene glycol 400 (“PEG-400”) and 5% Tween-80. SB216763 (2 mg/kilogram/bodyweight) or the solvent in 20 μl volume was injected i.p. three times a week. Tumor growth was monitored as discussed herein. […]

AR-null PC-3 cells = conditions: Mazor 2004; cited from earlier work
[7] = estimated serum lithium level in mice; format: in vivo; conditions: about 2 mg/kg of body weight, estimated (Moore 2002)
Excerpt: Based on these preliminary results, therapeutically effective dosage levels include those substantially below those used for treatment of bipolar disorders with lithium in humans, which are reported to result in a serum level between about 0.2 and 1.5 mEq/L (Noble 2005), and is usually over 0.8 mEq/L.

[8] = humans; cited from earlier work

SMILES: O=C1Nc2cc(Br)ccc2/C1=C1/Nc2ccccc2/C1=N\O [BIO, 6-bromoindirubin-3′-oxime]
- cell growth (MTT) (LNCaP cells [1]): significantly suppressed
- p21CIP1 protein expression (Western blot) (LNCaP cells [2]): increased dramatically
- protein levels of cyclins A and E, cdc6 and cdc25C (Western blot) (LNCaP cells [2]; dose-dependent): significantly reduced

SMILES: [Cl-].[K+] [KCl, potassium chloride]
- cell growth inhibition (MTT) (LNCaP cells [1]): did not cause any significant inhibition
- cell growth inhibition (MTT) (C4-2 cells [3]): did not cause any significant inhibition
- cell growth inhibition (MTT) (PC-3 cells [4]): did not cause any significant inhibition

SMILES: [Cl-].[Na+] [NaCl, sodium chloride]
- cell growth inhibition (MTT) (LNCaP cells [1]): did not cause any significant inhibition
- cell growth inhibition (MTT) (C4-2 cells [3]): did not cause any significant inhibition
- cell growth inhibition (MTT) (PC-3 cells [4]): did not cause any significant inhibition

SMILES: Cn1cc(C2=C(c3ccc(Cl)cc3Cl)C(=O)NC2=O)c2ccccc21 [SB216763, 3-(2,4-Dichlorophenyl)-4-(1-methyl-1H-indol-3yl)-1H-pyrrole-2,5-dione]
- cell growth (MTT) (LNCaP cells [1]): significantly suppressed
- cell cycle distribution (S-phase arrest) (C4-2 cells [5]): arrested these cells in S-phase
- cell cycle distribution (S-phase arrest) (PC-3 cells [6]): arrested these cells in S-phase
- side effects (LNCaP-BclxL xenografts; SB216763 2 mg/kg i.p.): No side effects
- tumor growth vs control animals (LNCaP-BclxL xenografts; SB216763 2 mg/kg i.p. every two days, palpable tumors): largely suppressed
- treatment duration after which difference in tumor volume became significant (LNCaP-BclxL xenografts; SB216763 2 mg/kg i.p. vs vehicle): 5 week
- growth of AR-null PC-3 cells (AR-null PC-3 cells): did not affect growth

SMILES: [Li] [lithium]
- serum level [7]: about 0.02 mEq/L
- usual serum level at dosages used for treatment of bipolar disorders [8]: over 0.8 mEq/L
